What was measured:
tympanic membrane (TM) [1] = assay: Titer of phage recovered from within the TM (homogenate) after one-hour application to the external TM surface; assay type: in vivo, Sprague Dawley rats; settings: 10^9 PFU in 10 μL PBS, six infected rats, PBS and 0.2 M glycine acid wash (pH 2.2), TM homogenized, titered on E. coli, mean of six
Method: Each peptide phage was applied to the external TM surface (10^9 PFU in 10 μL of PBS) of six previously infected rats, ensuring that the entire membrane surface was covered for one hour.

tympanic membrane (TM) [2] = settings: recovery from ME lumen after one-hour application to external TM surface; cited from earlier work
Method: Each peptide phage was applied to the external TM surface (10^9 PFU in 10 μL of PBS) of six previously infected rats, ensuring that the entire membrane surface was covered for one hour. The phage solution was removed from the ex ...

[3] = system: tympanic membrane (TM) cells; assay: Confocal imaging of immunolabeled phage within the tympanic membrane after one-hour application to the external TM surface in vivo; design: species or system Sprague Dawley rats
Method: Rodent cocktail (2.0 mg/kg xylazine and 40.0 mg/kg ketamine i.m.) was employed for anesthesia. The ME bulla was exposed via a ventral midline neck incision. A 25 g needle was used to make a small opening in the bullar bone, through which 5 × 10^4 CFUs of nontypeable Haemophilus influenzae (NTHi) type 3655 [20] was injected, in 50 μL of BHI media using a 30 g needle. Care was taken to avoid damaging the tympanic membrane, ossicles, or inner ear. Animals survived for 48 h to allow for an ME infection to develop, which was confirmed by TM visualization. Phages were then applied to the external TM surface in vivo for one hour in 10^9 PFUs ([…] forming units) in 10 μL of PBS, ensuring the entire surface of the membrane was covered.
For confocal microscopy, TMT3 and WT phages were employed. The animal was sacrificed, the phage solution removed, and the TM washed 3× with PBS to remove any remaining phage solution, then 2× with acid wash to remove phages bound to the TM, followed by 2× with PBS. The bulla was then dissected and opened, the interior TM surfaces were washed as above, and the TM was fixed in cold 4% PFA overnight. The TM was dissected from the annular bone and additionally washed 2× with PBS, and the manubrium of the malleus carefully removed. The membrane was incubated in tissue-penetration and blocking solution (5% Triton X and 10% fetal bovine serum (FBS) in PBS) for one hour at room temperature. The TMs were again washed 2× in PBS and incubated in primary antibody (M13 anti-phage coat protein, rabbit polyclonal antibody, Invitrogen PA1-26758, 1:100) overnight at 4 °C. TMs were washed 2× in PBS and incubated with a secondary antibody (FITC-labeled anti-rabbit, Jackson Immuno, 711-095-152) previously treated with DyLight 405 stain for enhanced visualization (Jackson Immuno 711-475-152) at 1:100 concentration for three hours at room temperature with light protection. TMs were again washed with PBS 2× and stained with DAPI (Novus NPB2-31156, 1:1000, 30 min at room temperature with light protection). Some TMs were also incubated with Texas Red-X Phalloidin (Invitrogen T7471, F-actin staining) at 1:500 concentration for one and one-half hours at room temperature and light protection to stain actin. After incubations, TMs were washed 2× with PBS and mounted with the external surface uppermost using antifade, hard-mount media (Vectashield, VectaLabs H-1400). Control TMs were exposed for 1 h to PBS in vivo and then identically treated.
The localization of the phage was evaluated via fluorescence confocal microscopy. TMs were imaged on a Leica SP8 Confocal with Lightning-adaptive deconvolution or an Olympus FV1000 Confocal with SIM Scanner, and 60× and 100× image stacks were generated for rendering of stained TMs. Image stacks were post-processed using Velocity high-performance software to generate images. Separate portions of the stacks were used to visualize phages in the external epithelium, the middle fibrous layer, and the inner mucosal epithelium.

[4] = NTHi-infected ME, 10^9 PFU in 10 μL PBS, one hour, confocal, ImageJ count

| Sequence | phage titer recovered from within the TM (in words) (tympanic membrane (TM) [1]) | trans-TM transport rate (in words) (tympanic membrane (TM) [2]) | mean number of puncta per cell, external epithelium of the TM ([3]; NTHi-infected ME, 10^9 PFU in 10 μL PBS on external TM surface, one hour, anti-M13 immunolabel, confocal, ImageJ count, s.d. 43.1) [puncta per cell] | median number of puncta per cell, external epithelium of the TM [3, 4] [puncta per cell] | median number of puncta per cell, inner mucosal epithelium of the TM [3, 4] [puncta per cell] | mean number of puncta per cell, inner mucosal epithelium of the TM ([3]; NTHi-infected ME, 10^9 PFU in 10 μL PBS, one hour, confocal, ImageJ count, significantly less than external epithelium (p 0.002)) | phage content of the cells with the highest numbers (mucosal cells comparable to external epithelium) ([3]; one-hour application, confocal, ImageJ count) | presence of phage within TM cells by immunolabeling (in words) ([3]; one-hour incubation on the external canal TM surface, confocal imaging) |
| --- | --- | --- | --- | --- | --- | --- | --- | --- |
| SADSTKTTHLTL [TMT3, M13 bacteriophage displaying 12-mer trans-TM peptide […] on pIII] | higher than that of TMT3 (18)-1 | high transport rate | 139.2 | 110 | 23 | 42.9 (s.d. 44.8) puncta per cell | 200–250 puncta/cell | clearly intracellular and are restricted to the cell cytoplasm |
| TLSPKMPGGGYW [TMT2] | significantly higher than those of TMT3 | low transport rate | – | – | – | – | – | – |

— PMC11727143, “Peptide-Mediated Transport Across the Intact Tympanic Membrane Is Intracellular, with the Rate Determined by the Middle Ear Mucosal Epithelium” (Biomolecules, 2024)
